# From patent US20140147848A1 (UNIVERSITY OF TSUKUBA, priority 2012, published 2014)
# Like-named read-outs stand apart in the source and are kept apart here.
# Legend:
# [1] = test system: Caco-2 cells
# Procedure: Caspase assay was performed using Immunochemistry Technologies, LLC's Apoptosis detection kit, according to the manufacturer's protocol. […] After treatment, approximately 290-300 μl of each cell suspension was transferred to sterile tubes (e.g., cell density should be around 1×10^7 cells/ml). 10 μl of 30×FLICA solution was added directly to the 290-300 μl cell suspensions, and then incubate cells for 1 hour at 37° C. under 5% CO2, protecting the tubes from light. 2 ml of 1× wash buffer was added to each tube. The tubes were then mix and centrifuge cells at <400×g for 5 minutes at room temperature (RT). The supernatant was carefully remove and discard. The cell pellet was resuspended in 1 ml 1× wash buffer, and the cells were centrifuged again at <400×g for 5 minutes at RT. The supernatant was carefully removed and discarded. The cells were resuspended in 400 μl PBS, about 100 μl of the cell suspensions was placed into each of 2 wells of a black microplate. Finally the fluorescence intensity of sulforhodamine (excitation 550 nm, emission 595 nm) was measured and used a fluorescence plate reader.
# [2] = test system: Heat shock cognate 71 kDa protein (HSP7C); conditions: LAS 60 ppm, 12 hours after exposure
# Procedure: (§2) Caco-2 cells treatment and RNA extraction: Caco-2 cells were seeded at 2×10^5 cells/ml density in Petri dishes. […] Total RNA was then purified using the ISOGEN kit (Nippon GeneCo Ltd., Japan) following the manufacturer's instructions.
# (§3) cDNA synthesis: Total RNA was quantified using the Thermo scientific Nanodrop 2000 (USA), and reverse transcription reactions were performed using the Superscript III reverse transcriptase kit (Invitrogen, Carlsbad, Calif.) using 1 μg of total RNA. Briefly, RNA was denatured by incubation at 65° C. for 5 min, with 1 μL oligo (dT) primers, and chilled at 4° C. SuperScript III reverse transcriptase was then added and the reaction mix was incubated at 42° C. for 60 min, and then for 10 min at 70° C.
# Real-time PCR: The expression of TPM3, THIO, CALR and HSP7C, respectively, in treated Caco-2 cells was determined by real-time PCR using glyceraldehyde 3-phosphate dehydrogenase (GAPDH) as an internal positive control. […] TaqMan real-time PCR amplification reactions were performed in a 20 μl reaction mixtures containing: 10 μl of TaqMan Universal PCR Master Mix UNG (2×), 9 μl of template cDNA (100 ng μl^−1) and 1 μl of the corresponding primer/probe mix, using an AB 7500 fast real-time system (Applied Biosystems). […]
# [3] = test system: Caco-2 cells; conditions: 5 ppm and 60 ppm LAS, 24 hours, vs control
# Procedure: Total protein was extracted from all three populations 24 hours after treatment, as described in detail below. […] The labeled spots (i.e., the differentially expressed proteins) were chosen based on the results of software analysis designed to assess the respective fold changes of protein levels in the each of the respective spots.
# Caco-2 cells were seeded at 2×10^5 cells/ml density in Petri dishes. […] The cells were rinsed three times with ice-cold PBS, scraped gently, and collected in PBS. […] After desalting the protein was extracted using Amicon Ultra centrifugal filters (Ultracel-10K membrane) from Millipore, and the final protein amount was determined using the 2-D Quant kit (GE Healthcare).
# The first dimension electrophoresis was carried out on an Ettan IPGphor II (GE Healthcare) apparatus. […] The destained gels were then scanned at 300 dpi resolution, and the images were analyzed with Image Master™ 2D software (ver. 4.9: GE Healthcare). For statistical quantification, three experiments were performed for each experiment. […] Spots were expressed as percentages (% vol) of relative volumes by integrating the value of each pixel in the spot area as described previously in our study (see, e.g., Han et al. 2010). […]
# [4] = test system: Tropomyosin alpha-3 chain (TPM3); test: Real-time PCR, TPM3 expression in Caco-2 cells; conditions: LAS 60 ppm
# Procedure: as §2, §3
# Real-time PCR: The expression of TPM3, THIO, CALR and HSP7C, respectively, in treated Caco-2 cells was determined by real-time PCR using glyceraldehyde 3-phosphate dehydrogenase (GAPDH) as an internal positive control. […] TaqMan real-time PCR amplification reactions were performed in a 20 μl reaction mixtures containing: 10 μl of TaqMan Universal PCR Master Mix UNG (2×), 9 μl of template cDNA (100 ng μl^−1) and 1 μl of the corresponding primer/probe mix, using an AB 7500 fast real-time system (Applied Biosystems). For the amplification, the following cycling conditions were applied: 2 min at 50° C., 10 min at 95° C., and 40 cycles of 15 s at 95° C./1 min at 60° C.
# [5] = test system: Caco-2 cells; conditions: LAS 60 ppm
# Procedure: (§1) Note that in all figures asterisks represent the significance of the difference compared to the control, e.g., * for p value<0.05 and ** for p value<0.01.
# The determination of intracellular ROS was performed using the OxiSelect™ Intracellular ROS Assay Kit, from CELL BIOLABS, INC., according to the manufacturer's protocol. Briefly, Caco-2 cells were cultured in a 96-well plate for 24 h, and then pre-incubated for 60 min with DCFH-DA. […] After a different incubation times of, for example, 1 h, 3 h, 6 h, and 12 h, the fluorescence was read using a plate reader at 480 nm/530 nm excitation/emission wavelengths. The ROS content was determined by comparison with the predetermined DCF standard curve.
# [6] = test system: Caco-2 monolayer
# Procedure: TEER measurements were obtained by growing the cells at a density of 2·10^5 cells/cm^2 in 6.5-mm diameter collagen coated Transwell (0.4 μm PTFE membrane) on 24-well plates. The medium was changed every 2 days, and the cells were cultured for 12 days to establish monolayer integrity. TEER measurements were performed according to the method of Hashimoto et al. (1997). After a 12-day culture period, the cell monolayer was rinsed with PBS.
# [7] = test system: Thioredoxin (THIO); conditions: LAS 60 ppm
# Text: as §1
# [8] = test system: Caco-2 cells; remark: listed apart in the source
# [9] = test system: Calreticulin (CALR); test: Real-time PCR, CALR expression in Caco-2 cells; conditions: LAS 60 ppm
# Procedure: as §2, §3
# Real-time PCR: The expression of TPM3, THIO, CALR and HSP7C, respectively, in treated Caco-2 cells was determined by real-time PCR using glyceraldehyde 3-phosphate dehydrogenase (GAPDH) as an internal positive control. Oligos for TPM3 (Hs01900726_g1), THIO (Hs01555212_g1), CALR (Hs00189032_m1), HSP7C (Hs03045200_g1) and GAPDH (Hs02758991_g1) were inventoried gene expression assays (see Table 5). TaqMan real-time PCR amplification reactions were performed in a 20 μl reaction mixtures containing: 10 μl of TaqMan Universal PCR Master Mix UNG (2×), 9 μl of template cDNA (100 ng μl^−1) and 1 μl of the corresponding primer/probe mix, using an AB 7500 fast real-time system (Applied Biosystems). For the amplification, the following cycling conditions were applied: 2 min at 50° C., 10 min at 95° C., and 40 cycles of 15 s at 95° C./1 min at 60° C.
# [10] = test system: Caco-2 cells; remark: listed apart in the source
# Procedure: Cells were then harvested by centrifugation, where the supernatant was discarded and the pellet was resuspended in 1 ml of PBS. Genomic DNA was then purified using commercial DNA purification kit from QIAGEN. 1 μg of DNA sample was added to 2 μl of loading buffer (Wako) and then loaded onto a 2% agarose gel. The electrophoresis was carried out at a constant voltage of 100 V for 20 min and the DNA was finally observed under ultraviolet illumination after staining with ethidium bromide.
# [11] = test system: Caco-2 cells; remark: listed apart in the source
# Procedure: Specifically, Caco-2 cells were treated with concentrations of 0, 1 ppm, 5 ppm, 50 ppm, 60 ppm, and 70 ppm and analyzed by an MTT assay at 24 h, 48 h, and 72 h post-treatment.
# The human colon adenocarcinoma cell line Caco-2 was kindly provided by Dr. Makoto Shimizu of the University of Tokyo, Japan. Caco-2 cells were cultured in Dulbecco's modified Eagle's medium (DMEM; Sigma) supplemented with 10% fetal calf serum (FCS), 1% nonessential amino acids (NEAA) and 1% Penicillin/Streptomycin (5 mg/ml each), and incubated in a 95% air and 5% CO2 atmosphere at 37° C. The cells were sub-cultured at a split ratio of 1:3 every 2 days.
# Cell viability was assessed using a conventional MTT reduction assay. […] At the respective time points, 10 μl of MTT stock solution (5 mg/ml) was added to the culture medium and incubated for 6 h at 37° C. The formazan was extracted with 100 μl 10% SDS (W/V), and the absorbance was measured with a microliter plate reader at 570 nm wavelength.
substance,measurement,setting,value
sodium dodecylbenzenesulfonate [LAS],cell death pathway (caspase assay),[1],non-apoptotic pathway
same,HSP7C expression relative to control,[2],significantly overexpressed
same,"change in protein expression, spots 1, 2, 4, 5, 7, 8, 9, 10, and 12",[3],up-regulation
same,"change in protein expression, spots 3, 6, 11, and 13",[3],down-regulation
same,TPM3 overexpression relative to the control,[4]; 3 hours,1.2 fold
same,TPM3 overexpression relative to the control,[4]; 6 hours post-exposure,slightly below that of the control
same,TPM3 overexpression relative to the control,[4]; after 6 hours (time not given),~1.05 fold
same,ROS production,[5]; 12 hours post-treatment,returned to baseline levels (or lower)
same,ROS production,[5]; within the first 6 hours after treatment,significant ROS production
same,relative electrical resistance (TEER),"[6]; 5, 10, 30, and 60 ppm LAS over time",decreased with increasing concentration of LAS
same,time to decrease in barrier function efficiency,[6]; higher concentrations of LAS,≤ 30 min
same,THIO overexpression relative to the control,[7]; 3 hours,1.4 fold
same,THIO overexpression relative to the control,[7]; 6 hours,1.4 fold
same,THIO overexpression relative to the control,[7]; 12 hours,about 1.3 fold
same,THIO overexpression relative to the control,[7]; 24 hours,about 1.1 fold
same,intracellular calcium concentration,[8]; 3 and 6 hours post-treatment,decrease of the intracellular calcium concentration
same,intracellular calcium concentration,"[8]; 12 hours, continuing until 24 hours post-treatment",excessive increase of the intracellular calcium concentration
same,CALR expression relative to control,[9]; 3 hours post-treatment,about 1.6 fold
same,CALR expression relative to control,[9]; 12 hours post-treatment,decreased to baseline levels
same,CALR expression relative to control,[9]; 24 hours after exposure,once again overexpressed
same,DNA fragmentation,[10],no DNA fragmentation was observed
same,cytotoxic effect on Caco-2 cells (MTT),"[11]; 0-70 ppm LAS, 24 h, 48 h, 72 h post-treatment",strong cytotoxic effect
same,cytotoxic effect on Caco-2 cells (MTT),[11]; LAS 5 ppm,no obvious cytotoxic effect
